Marks after values point to notes of the source that are not given here.
What was measured:
[1] = molecular target: T1, Porcine ventricle myofibrils (ventricular myosin ATPase) (Sus scrofa, UniProt P79293); assay: Myofibril ATPase assay, porcine ventricle myofibrils; format: biochemical, porcine (Yucatan minipigs); settings: porcine ventricle myofibrils
T1 construct: Myofibrils from porcine cardiac muscle was isolated from the left ventricle of Yucatan minipigs; tissue Exemplar Genetics; host or cells: left ventricle of Yucatan minipigs, myofibrils prepared in house
Method in brief: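 Read-out: A340 kinetic, NADH consumption coupled to ADP via PK-LDH, 75 min. Yucatan minipig LV myofibrils, pCa buffer (PIPES/CaCl2/EGTA, pH 7.0). Linear-regression slope (mAU/min), vehicle = 100%, 4PL fit; Y75 or Y125 reported.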

[2] = test system: Rabbit Psoas myofibrils (skeletal myosin ATPase); assay: Myofibril ATPase assay, rabbit psoas (skeletal) myofibrils; format: biochemical; settings: rabbit psoas myofibrils
Method in brief: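 Readout: A340 decline from NADH oxidation, PK/LDH-coupled to ADP release; kinetic reads over 75 min. Buffer: pCa (PIPES, CaCl2, EGTA), pH 7.0. Linear-regression slopes vs vehicle, 4PL fit; reported as concentration giving 75% (Y75) or 125% (Y125) of vehicle activity.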

[3] = test system: Porcine atria myofibrils (atrial myosin ATPase); assay: Myofibril ATPase assay, porcine atria myofibrils; format: biochemical; settings: porcine atria myofibrils
Method in brief: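 Coupled PK-LDH readout, NADH loss at 340 nm, kinetic 75 min. Porcine atria myofibrils, pCa buffer (PIPES/CaCl2/EGTA, pH 7.0). Slopes (mAU/min) normalized to vehicle = 100%, 4-parameter fit; Y75 or Y125 reported.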

[4] = Y75 value (75% activity relative to no compound)
[5] = ‡ Y125 value, not a Y75 value (125% activity relative to no compound)

T1 sequence (P79293 whole entry): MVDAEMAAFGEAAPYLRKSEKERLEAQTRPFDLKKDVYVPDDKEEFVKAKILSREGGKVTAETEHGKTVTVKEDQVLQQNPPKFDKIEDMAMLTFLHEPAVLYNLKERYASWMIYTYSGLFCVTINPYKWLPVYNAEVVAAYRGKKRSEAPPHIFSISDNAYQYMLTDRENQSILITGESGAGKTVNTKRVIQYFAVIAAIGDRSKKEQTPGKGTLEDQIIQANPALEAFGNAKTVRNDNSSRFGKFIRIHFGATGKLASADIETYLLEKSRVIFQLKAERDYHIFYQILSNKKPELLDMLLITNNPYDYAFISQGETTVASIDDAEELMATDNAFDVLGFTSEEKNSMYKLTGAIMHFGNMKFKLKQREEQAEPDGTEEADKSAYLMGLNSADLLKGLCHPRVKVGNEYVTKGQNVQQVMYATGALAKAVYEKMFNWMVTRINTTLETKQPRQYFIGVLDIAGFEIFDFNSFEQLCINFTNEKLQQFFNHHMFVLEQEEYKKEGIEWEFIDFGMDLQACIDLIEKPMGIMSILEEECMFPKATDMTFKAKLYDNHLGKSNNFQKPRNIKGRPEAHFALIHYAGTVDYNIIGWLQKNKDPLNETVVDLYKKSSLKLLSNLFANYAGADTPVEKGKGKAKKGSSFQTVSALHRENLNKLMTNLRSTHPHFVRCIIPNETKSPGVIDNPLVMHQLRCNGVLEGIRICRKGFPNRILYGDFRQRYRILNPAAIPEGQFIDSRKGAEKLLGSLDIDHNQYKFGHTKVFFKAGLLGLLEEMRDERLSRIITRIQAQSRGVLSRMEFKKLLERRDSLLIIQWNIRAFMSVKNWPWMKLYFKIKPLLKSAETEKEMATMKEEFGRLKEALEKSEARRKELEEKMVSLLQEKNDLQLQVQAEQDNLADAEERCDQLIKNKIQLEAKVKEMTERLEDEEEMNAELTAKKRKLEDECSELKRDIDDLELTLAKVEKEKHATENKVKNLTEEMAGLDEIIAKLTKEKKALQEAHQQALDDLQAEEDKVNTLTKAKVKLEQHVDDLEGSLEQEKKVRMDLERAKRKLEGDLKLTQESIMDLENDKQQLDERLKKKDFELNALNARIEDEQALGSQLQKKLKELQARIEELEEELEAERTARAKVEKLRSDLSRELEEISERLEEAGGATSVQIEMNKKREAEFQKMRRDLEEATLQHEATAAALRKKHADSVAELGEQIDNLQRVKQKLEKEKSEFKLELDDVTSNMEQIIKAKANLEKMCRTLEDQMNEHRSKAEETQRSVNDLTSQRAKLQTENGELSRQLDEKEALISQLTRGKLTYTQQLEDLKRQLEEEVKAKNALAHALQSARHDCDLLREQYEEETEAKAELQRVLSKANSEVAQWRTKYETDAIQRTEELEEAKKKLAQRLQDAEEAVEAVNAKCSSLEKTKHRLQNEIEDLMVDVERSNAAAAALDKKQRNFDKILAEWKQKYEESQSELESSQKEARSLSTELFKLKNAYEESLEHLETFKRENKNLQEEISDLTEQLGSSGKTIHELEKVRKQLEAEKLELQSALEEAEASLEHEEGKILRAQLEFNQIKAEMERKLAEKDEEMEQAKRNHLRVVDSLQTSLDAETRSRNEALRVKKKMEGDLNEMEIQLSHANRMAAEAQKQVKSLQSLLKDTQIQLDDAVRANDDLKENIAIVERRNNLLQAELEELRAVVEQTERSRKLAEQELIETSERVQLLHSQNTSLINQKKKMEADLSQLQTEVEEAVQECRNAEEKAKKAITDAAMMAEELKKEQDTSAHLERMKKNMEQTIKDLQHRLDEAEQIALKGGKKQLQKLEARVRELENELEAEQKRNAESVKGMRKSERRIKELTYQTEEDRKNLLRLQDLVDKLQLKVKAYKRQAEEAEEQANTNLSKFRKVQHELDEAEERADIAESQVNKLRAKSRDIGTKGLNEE

SMILES	Ventricular EC25 ([1]; Y75 value (no ‡ mark))	Skeletal EC25 ([2]; Y75 value (no ‡ mark))	Atrial EC25 ([3]; Y75 value (no ‡ mark))	Ventricular EC25 ([1]; Y75 value)	Skeletal EC25 ([2]; Y75 value)	Atrial EC25 [3, 4]	other results
Cc1nnccc1[C@H](C)NC(=O)Cc1c(C)c2cc(F)ccc2[nH]c1=O [compound 1091]	80.11 µM	100.00 µM	53.30 µM	–	–	–	–
Cc1ccc2[nH]c(=O)c(CC(=O)N[C@H](C)c3ncc(C#N)cc3F)c(C)c2n1 [compound 468]	–	–	–	1.48 µM	4.03 µM	0.80 µM	–
Cc1nccc2[nH]c(=O)c(CC(=O)N[C@@H]3CNc4cc(F)cc(F)c43)c(C)c12 (single isomer, unassigned) [compound 181]	–	–	–	2.51 µM	0.09 µM	0.31 µM	–
Cc1cccc([C@@H](C)NC(=O)Cc2c(C)c3c(C)nccc3[nH]c2=O)c1 (single isomer, unassigned) [compound 339]	–	–	–	100.00 µM	100.00 µM	100.00 µM	–
Cc1nccc2[nH]c(=O)c(CC(=O)N[C@@H](C)c3ccc(F)cc3F)c(C)c12 [compound 433]	–	–	–	0.64 µM	0.03 µM	0.15 µM	–
C[C@H](NC(=O)Cc1cc2c(C#N)cccc2[nH]c1=O)c1ncc(C#N)cn1 (single isomer, unassigned) [compound 2038]	100.00 µM	100.00 µM	100.00 µM	–	–	–	–
Cc1c(CC(=O)N[C@@H](C)c2ncc(C#N)cc2F)c(=O)[nH]c2cccc(C#N)c12 [compound 1081]	0.28 µM	0.03 µM	0.12 µM	–	–	–	–
Cc1nccc2[nH]c(=O)c(C(F)(F)C(=O)N[C@H](C)c3ncc(C#N)cc3F)c(C)c12 (single isomer, unassigned) [compound 3513]	–	–	–	62.33 µM	5.80 µM	4.94 µM	–
Cc1nccc2[nH]c(=O)c(CC(=O)N[C@H](C)c3ccc(C#N)cc3F)c(C)c12 (single isomer, unassigned) [compound 255]	–	–	–	1.77 µM	0.71 µM	1.30 µM	–
C[C@@H](NC(=O)Cc1cc2c(F)cc(F)cc2[nH]c1=O)c1ncc(C#N)cc1F [compound 1137]	2.51 µM	5.34 µM	5.32 µM	–	–	–	–
Cc1c(CC(=O)N[C@H](C)c2ccc(C#N)cn2)c(=O)[nH]c2ccc(F)cc12 [compound 1127]	1.57 µM	0.24 µM	0.72 µM	–	–	–	–
Cc1c(CC(=O)N[C@@H](C)c2ncc(C#N)cn2)c(=O)[nH]c2ccc(C#N)cc12 (single isomer, unassigned) [compound 2028]	–	–	100.00 µM	–	–	–	Ventricular EC25 [1, 5]: 100.00‡ μM; Skeletal EC25 [2, 5]: 73.42‡ μM
COc1cccc([C@H](C)NC(=O)Cc2c(C)c3c(C)nccc3[nH]c2=O)n1 (single isomer, unassigned) [compound 310]	–	–	–	100.00 µM	100.00 µM	100.00 µM	–
Cc1c(CC(=O)N[C@@H](C)c2ccc(F)cc2F)c(=O)[nH]c2ccc(Br)cc12 [compound 120]	0.25 µM	0.05 µM	0.04 µM	–	–	–	–
Cc1c(C(F)(F)C(=O)N[C@@H](C)c2ncc(C#N)cc2F)c(=O)[nH]c2cccc(C#N)c12 (single isomer, unassigned) [compound 2502]	0.20 µM	0.03 µM	0.09 µM	–	–	–	–
COc1cccc([C@H](C)NC(=O)Cc2c(C)c3c(C)nccc3[nH]c2=O)c1 (single isomer, unassigned) [compound 315]	–	–	–	100.00 µM	100.00 µM	100.00 µM	–

SMILES	Ventricular EC25 ([1]; Y75 value (no ‡ mark))	Skeletal EC25 ([2]; Y75 value (no ‡ mark))	Atrial EC25 ([3]; Y75 value (no ‡ mark))	Ventricular EC25 ([1]; Y75 value)	Skeletal EC25 ([2]; Y75 value)	Atrial EC25 [3, 4]	other results
Cc1nccc2[nH]c(=O)c(C3(C(=O)N[C@H](C)c4ncc(C#N)cc4F)CC3)c(C)c12 (single isomer, unassigned) [compound 3519]	–	–	–	17.07 µM	–	0.94 µM	Skeletal EC25 (Y125 value, marked ‡) ([2]; Y125 value, not a Y75 value): 97.12‡ μM
C[C@H](NC(=O)Cc1cc2cc(O)ccc2[nH]c1=O)c1ccc(F)cc1F [compound 125]	20.89 µM	25.67 µM	64.80 µM	–	–	–	–
Cc1cnncc1[C@@H](C)NC(=O)Cc1c(C)c2c(C)nccc2[nH]c1=O [compound 480]	–	–	–	100.00 µM	33.82 µM	100.00 µM	–
Cc1nccc2[nH]c(=O)c(CC(=O)N[C@H](C)c3cccnc3O)c(C)c12 (single isomer, unassigned) [compound 302]	–	–	–	100.00 µM	100.00 µM	100.00 µM	–
Cc1c(CC(=O)N[C@@H](CO)c2ncc(F)cc2F)c(=O)[nH]c2ccc(C#N)nc12 [compound 260]	–	–	–	100.00 µM	33.76 µM	2.40 µM	–
C[C@@H](NC(=O)C(F)(F)c1cc2c(F)c(F)ccc2[nH]c1=O)c1nccc(C#N)n1 (single isomer, unassigned) [compound 2561]	0.79 µM	0.25 µM	0.23 µM	–	–	–	–
Cc1c(CC(=O)N[C@@H](C)c2ncc(C#N)cc2F)c(=O)[nH]c2ccc(O)nc12 [compound 166]	–	–	–	100.00 µM	3.22 µM	1.91 µM	–
Cc1nccc2[nH]c(=O)c(CC(=O)N[C@@H](C)c3ccc(C#N)cc3F)c(F)c12 [compound 149]	–	–	–	0.10 µM	0.02 µM	0.06 µM	–
Cc1nc(C#N)ccc1[C@@H](C)NC(=O)Cc1c(C)c2cc(F)ccc2[nH]c1=O [compound 1050]	2.36 µM	3.4 µM	0.22 µM	–	–	–	–
COc1nccc2[nH]c(=O)c([C@H](C)C(=O)N[C@@H](C)c3ccc(F)cc3F)c(C(F)(F)F)c12 (single isomer, unassigned) [compound 424]	–	–	–	17.24 µM	4.49 µM	1.91 µM	–
C[C@H](NC(=O)Cc1cc2c(F)c(F)ccc2[nH]c1=O)c1ncc(C#N)cn1 (single isomer, unassigned) [compound 2072]	11.13 µM	0.35 µM	0.68 µM	–	–	–	–
C[C@H](NC(=O)Cc1cc2c(C#N)c(O)ccc2[nH]c1=O)c1ccc(F)cc1F [compound 82]	100.00 µM	100.00 µM	100.00 µM	–	–	–	–
C[C@H](NC(=O)Cc1c(C(F)(F)F)c2ncccc2[nH]c1=O)c1ccc(F)cc1F [compound 417]	–	–	–	9.50 µM	0.17 µM	9.70 µM	–
Cc1nccc2[nH]c(=O)c([C@@H](C)C(=O)N[C@@H](C)c3ccc(F)cc3F)c(C)c12 (single isomer, unassigned) [compound 399]	–	–	–	18.33 µM	0.30 µM	0.91 µM	–
COc1ccc([C@@H](C)NC(=O)Cc2c(C)c3c(C)nccc3[nH]c2=O)cc1 (single isomer, unassigned) [compound 286]	–	–	–	100.00 µM	8.58 µM	45.61 µM	–
C[C@H](NC(=O)Cc1cc2cc(F)c(F)cc2[nH]c1=O)c1ccc(C#N)cn1 [compound 1115]	69.62 µM	11.40 µM	27.67 µM	–	–	–	–

Reference: patent US12448369B2 (Edgewise Therapeutics, Inc., priority 2023, dated 2025)
